In patent US10328077B2 (CELGENE CORPORATION, priority 2016, dated 2019):
Read-outs that look alike come from different tables or passages of the source.

Experiments:
in vivo = conditions: Beagle, dog, po; for AUC(0-t): AUC0-96
hERG potassium channel = hERG potassium channel (Homo sapiens (Human), UniProt Q12809)
LNCaP cells = assay: LNCaP cell proliferation with DHT and irradiation; type: cell-based, human; conditions: 10 nM DHT + 100 nM Compound A + 2Gy irradiation vs DHT + irradiation or DHT + Compound A, 220 hours
Experimental: LNCaP cells are androgen-sensitive human prostate adenocarcinoma cells. […] The proliferation of the LNCap cells was monitored for 220 hours.

[1] = Metabolism in cryopreserved primary hepatocytes; type: in vitro ADME; conditions: male mouse, rat, dog, monkey; mixed gender human
[2] = Hemodynamic and ECG parameters in anesthetized guinea pigs; type: in vivo, Dunkin Hartley guinea pigs; conditions: for concentration at 10 min: male, Dunkin Hartley, plasma, read-out: mean plasma concentration at end of infusion
From the text: Animals were monitored throughout the experiment.

CYP2B6 mRNA = assay: CYP induction in cryopreserved human hepatocytes, CYP2B6; type: in vitro ADME; conditions: 0.03 to 10 μM, up to 3 days
[3] = tested on: gene expression in MKL-1 and MS-1 hMCC cell lines; assay: RNA-seq modulation of gene expression in cultured hMCC cells; type: cell-based, human; conditions: 10 and 100 nM
Experimental: The modulation of gene expression by Compund A for a panel of human genes was determined by culturing MKL-1 or MS-1 cells (Sigma-Aldrich, St. Louis, Mo.) for three days in the presence of 0, 10, or 100 nM Compund A and extracting total RNA for assessment by RNA-seq.
Libraries were sequenced on an Illumina NextSeq® 500 System (Illumina, San Diego, Calif.) using 75 base paired-end RNA sequencing. Sequenced reads were mapped to the hg19 human genome build and differential expression was determined by analysis of variance across all replicates relative to the vehicle control.
Sequenced reads were mapped to the hg19 human genome build using the Spliced Transcripts Alignment to a Reference (STAR) software tool (©Alexander Dobin, 2009-2016) and transcript counts were normalized using the Empirical Analysis of Digital Gene Expression Data in R (edgeR) and Differential gene expression analysis based on the negative binomial distribution (DESeq2) software tools (©Bioconductor, 2003-2017). Differential expression was determined by analysis of variance across all replicates relative to the vehicle control.

[4] = Pharmacokinetics after IV and oral dose, dogs; type: in vivo, Beagle dogs; conditions: dog, plasma
[5] = Beagle, male, single IV dose 1 mg
[6] = Beagle, male, single oral dose 1 mg base/kg
[7] = Beagle, male, single oral dose 3 mg base/kg
[8] = Beagle, male, single oral dose 6 mg base/kg

hERG potassium channel, sequence (Q12809 whole entry): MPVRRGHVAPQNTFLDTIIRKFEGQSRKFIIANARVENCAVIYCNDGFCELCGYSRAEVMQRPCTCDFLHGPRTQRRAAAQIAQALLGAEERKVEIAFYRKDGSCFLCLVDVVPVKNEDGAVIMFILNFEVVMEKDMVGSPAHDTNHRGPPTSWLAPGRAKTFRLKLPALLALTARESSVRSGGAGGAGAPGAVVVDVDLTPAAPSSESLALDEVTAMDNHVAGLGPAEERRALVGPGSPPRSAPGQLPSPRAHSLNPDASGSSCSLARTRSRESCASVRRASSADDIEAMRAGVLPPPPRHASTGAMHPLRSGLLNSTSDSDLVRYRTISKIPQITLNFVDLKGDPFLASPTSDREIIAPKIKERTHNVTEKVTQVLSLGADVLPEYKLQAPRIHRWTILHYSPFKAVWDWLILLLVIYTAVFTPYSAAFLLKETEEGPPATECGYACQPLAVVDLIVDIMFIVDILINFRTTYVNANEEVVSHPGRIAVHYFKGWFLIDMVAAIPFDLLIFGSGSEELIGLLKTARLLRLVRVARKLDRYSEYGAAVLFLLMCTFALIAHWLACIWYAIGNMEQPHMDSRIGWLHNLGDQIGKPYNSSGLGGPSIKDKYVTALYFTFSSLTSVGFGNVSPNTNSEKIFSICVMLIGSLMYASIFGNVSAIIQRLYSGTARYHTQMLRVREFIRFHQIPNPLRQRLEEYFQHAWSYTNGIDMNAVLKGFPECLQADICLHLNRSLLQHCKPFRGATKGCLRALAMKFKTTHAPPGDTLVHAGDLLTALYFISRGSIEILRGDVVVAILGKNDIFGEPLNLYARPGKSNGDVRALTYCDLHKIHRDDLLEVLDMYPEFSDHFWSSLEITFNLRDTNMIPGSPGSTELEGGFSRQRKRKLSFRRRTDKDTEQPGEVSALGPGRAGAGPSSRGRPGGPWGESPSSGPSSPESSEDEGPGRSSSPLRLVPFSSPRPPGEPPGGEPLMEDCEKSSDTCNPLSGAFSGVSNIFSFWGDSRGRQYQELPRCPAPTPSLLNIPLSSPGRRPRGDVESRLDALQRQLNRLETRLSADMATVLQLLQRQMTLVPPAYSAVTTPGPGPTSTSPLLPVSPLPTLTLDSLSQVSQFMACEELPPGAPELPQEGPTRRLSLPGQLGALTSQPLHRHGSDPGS

## COc1ccc(-c2c(-c3ccc(C#N)c(F)c3)nc(N3CCC(N)CC3)n(C)c2=O)cc1F [Compound A, 4-[2-(4-amino-piperidin-1-yl)-5-(3-fluoro-4-methoxy-phenyl)-1-methyl-6-oxo-1,6-dihydro-pyrimidin-4-yl]-2-fluoro-benzonitrile]
In vivo; both, 0.125 mg/kg
  AUC(0-t): 127 ng·h/mL
In vivo; both, 0.125 mg/kg, Cmax
  Cmax: 5.26 ng/mL
In vivo; both, 0.125 mg/kg, combined Day 15 mean Cmax
  Cmax: 5.26 ng/mL
In vivo; both, 0.25 mg/kg, combined Day 15 mean Cmax
  Cmax: 11 ng/mL
In vivo; both, 0.5 mg/kg, combined Day 15 mean Cmax
  Cmax: 22 ng/mL
In vivo; both
  AUC(0-t): 120 ng·h/mL
In vivo; both, Cmax
  Cmax: 5.79 ng/mL
In vivo; female, 0.25 mg/kg
  AUC(0-t): 343 ng·h/mL
In vivo; female, 0.25 mg/kg, Cmax
  Cmax: 12.1 ng/mL
In vivo; female, 0.5 mg/kg
  AUC(0-t): 729 ng·h/mL
In vivo; female, 0.5 mg/kg, Cmax
  Cmax: 26.6 ng/mL
In vivo; female
  AUC(0-t): 141 ng·h/mL
In vivo; male, 0.25 mg/kg
  AUC(0-t): 335 ng·h/mL
In vivo; male, 0.25 mg/kg, Cmax
  Cmax: 11.9 ng/mL
In vivo; male, 0.5 mg/kg
  AUC(0-t): 762 ng·h/mL
In vivo; male, 0.5 mg/kg, Cmax
  Cmax: 24 ng/mL
In vivo; male
  AUC(0-t): 107 ng·h/mL
hERG potassium channel
  Hill coefficient: 1.2
LNCaP cells
  LNCaP cell proliferation: significantly inhibits LNCaP cell proliferation
[1]
  metabolic stability in hepatocytes: greater in rat and dog followed by human and monkeys while being least stable in mouse hepatocytes
[2]; 10 mg base/kg IV
  maximum increase of QTcB interval vs vehicle: approximately 9%
[2]; 15 mg base/kg IV
  maximum increase of QTcB interval vs vehicle: ~13%
[2]; 20 mg base/kg IV
  maximum increase of QTcB interval vs vehicle: ~16%
[2]; 20 mg base/kg IV, 9 minutes into infusion
  maximum suppression of HR vs vehicle: 19%
[2]; IV
  NOAEL for hemodynamic and ECG endpoints: 10 mg base/kg
[2]; after 20 mg base/kg IV
  HR decrease at end of monitoring period: 18%
[2]; guinea pig, in vivo
  QTcB interval increase at end of monitoring period: 10%
[2]; guinea pig, 5 mg base/kg IV
  concentration at 10 min: 1170 ng/mL
[2]; guinea pig, 10 mg base/kg IV
  concentration at 10 min: 2360 ng/mL
[2]; guinea pig, 15 mg base/kg IV
  concentration at 10 min: 4270 ng/mL
[2]; guinea pig, 20 mg base/kg IV
  concentration at 10 min: 6710 ng/mL
CYP2B6 mRNA
  increase in CYP2B6 mRNA over vehicle control: < 2 fold
[3]; 3 days, MKL-1 and MS-1
  downregulated genes with expression changes in both hMCC lines at both concentrations (of 4303): 17
  upregulated genes with expression changes in both hMCC lines at both concentrations (of 3803): 172
[3]; both hMCC lines
  ST18 and FREM2 gene expression change (upregulated): at least 2 fold
[4]; Beagle (dogs), IV, non-rodents (dogs, monkeys), read-out: half-life
  half-life: 12 to 20 h
[4]; Beagle, po, dogs and monkeys, read-out: oral bioavailability
  bioavailability: 82 to 100%
[4]; [5]
  AUC(0-inf): 1940 ng·h/mL
  AUC(0-t): 1300 ng·h/mL
  clearance: 9 mL/min/kg
[4]; Beagle, male, single IV dose 1 mg, mean (SD), read-out: Vss
  Vd: 11.1 L/kg
[4]; Beagle, male, single IV dose 1 mg, read-out: t1/2, z (converted)
  half-life: 15.5 h
[4]; [6]
  AUC(0-t): 1090 ng·h/mL
  Cmax: 69 ng/mL
  Tmax: 2 h
[4]; Beagle, male, single oral dose 1 mg base/kg, read-out: % F
  bioavailability: 84%
[4]; Beagle, male, single oral dose 1 mg base/kg, read-out: t1/2, z (converted)
  half-life: 15 h
[4]; [7]
  AUC(0-t): 3790 ng·h/mL
  Cmax: 298 ng/mL
  Tmax: 1 h
[4]; Beagle, male, single oral dose 3 mg base/kg, read-out: % F
  bioavailability: 100%
[4]; Beagle, male, single oral dose 3 mg base/kg, read-out: t1/2, z (converted)
  half-life: 19.4 h
[4]; [8]
  AUC(0-t): 8790 ng·h/mL
  Cmax: 627 ng/mL
  Tmax: 1 h
[4]; Beagle, male, single oral dose 6 mg base/kg, read-out: % F
  bioavailability: 100%
[4]; Beagle, male, single oral dose 6 mg base/kg, read-out: t1/2, z (converted)
  half-life: 17.8 h
